Test system: 958667-338-R-J2-PDC tumor spheroids viability
Test: Anticancer human tumor 958667-338-R-J2-PDC patient-derived colon adenocarcinoma cell line growth inhibition [PI3K]
Details: spheroids with HUVEC and MSC; for IC50: curve of first compound; for viability, T/C: stronger effect = lower value; active means viability on the fitted dose curve at most 10% of control; inactive means the rest
How it was run: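 Tumor cells were combined with HUVEC and MSCs into spheroids, then dosed with PI3K-inhibitor combinations over half-log ranges capped near clinical Cmax or 10 microM.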
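Further: spheroids exposed to compounds for seven days before readout.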

CC1(C)CCC(Nc2ncc(C(F)(F)F)c(-c3c[nH]c4c(P(C)(C)=O)c(C#N)ccc34)n2)CN1 (configuration not stated) + Cc1nc(NC(=O)N2CCCC2C(N)=O)sc1-c1ccnc(C(C)(C)C(F)(F)F)c1
2.58 µM: IC50 (second compound 3.16 µM)
4.53 µM: IC50 (second compound 0.1 µM)
4.09 µM: IC50 (second compound 0.316 µM)
6.39 µM: IC50 (second compound 0.0316 µM)
3.33 µM: IC50 (second compound 1 µM)
inactive: viability, T/C (second compound 0.0316 µM, first compound 0.0316 µM) 108% | viability, T/C (second compound 0.0316 µM, first compound 0.1 µM) 136% | viability, T/C (second compound 0.0316 µM, first compound 0.316 µM) 84% | viability, T/C (second compound 0.0316 µM, first compound 1 µM) 72.4% | viability, T/C (second compound 0.0316 µM, first compound 3.16 µM) 71.4% | viability, T/C (second compound 0.0316 µM, first compound 10 µM) 39% | viability, T/C (second compound 0.1 µM, first compound 0.0316 µM) 140% | viability, T/C (second compound 0.1 µM, first compound 0.1 µM) 112% | viability, T/C (second compound 0.1 µM, first compound 0.316 µM) 83.5% | viability, T/C (second compound 0.1 µM, first compound 1 µM) 72.2% | viability, T/C (second compound 0.1 µM, first compound 3.16 µM) 55.9% | viability, T/C (second compound 0.1 µM, first compound 10 µM) 40.3% | viability, T/C (second compound 0.316 µM, first compound 0.0316 µM) 119% | viability, T/C (second compound 0.316 µM, first compound 0.1 µM) 79.5% | viability, T/C (second compound 0.316 µM, first compound 0.316 µM) 96.2% | viability, T/C (second compound 0.316 µM, first compound 1 µM) 59.4% | viability, T/C (second compound 0.316 µM, first compound 3.16 µM) 67.1% | viability, T/C (second compound 0.316 µM, first compound 10 µM) 30.9% | viability, T/C (second compound 1 µM, first compound 0.0316 µM) 103% | viability, T/C (second compound 1 µM, first compound 0.1 µM) 82% | viability, T/C (second compound 1 µM, first compound 0.316 µM) 86.5% | viability, T/C (second compound 1 µM, first compound 1 µM) 67.6% | viability, T/C (second compound 1 µM, first compound 3.16 µM) 55.2% | viability, T/C (second compound 1 µM, first compound 10 µM) 22.8% | viability, T/C (second compound 3.16 µM, first compound 0.0316 µM) 80.5% | viability, T/C (second compound 3.16 µM, first compound 0.1 µM) 83.9% | viability, T/C (second compound 3.16 µM, first compound 0.316 µM) 73.5% | viability, T/C (second compound 3.16 µM, first compound 1 µM) 55.3% | viability, T/C (second compound 3.16 µM, first compound 3.16 µM) 52.6% | viability, T/C (second compound 3.16 µM, first compound 10 µM) 25.2% | viability, T/C (second compound 10 µM, first compound 0.0316 µM) 77.5% | viability, T/C (second compound 10 µM, first compound 0.1 µM) 63.2% | viability, T/C (second compound 10 µM, first compound 0.316 µM) 45.5% | viability, T/C (second compound 10 µM, first compound 1 µM) 57.1% | viability, T/C (second compound 10 µM, first compound 3.16 µM) 44.3% | viability, T/C (second compound 10 µM, first compound 10 µM) 14.5%
1.04 µM: IC50 (second compound 10 µM)

— PubChem BioAssay AID1963963 (Molecular Pharmacology Branch, DTP, NCI, 2024)
